No end group written: not given here.
What was measured:
[1] = tested on: T98G glioblastoma cells; experiment: Cell number (growth and survival) after peptide treatment, T98G; type: cell-based; settings: for growth and survival of T98G cells, time course: 10 μM or 20 μM for 1-6 days; for growth and survival of T98G cells, time course / number of T98G cells / morphology, growth and survival of T98G cells: stock without BSA; for number of T98G cells: 6-7 days; for number of T98G cells / effect of BSA in stock buffer on potency in suppressing growth and survival: 0 μM to 50 μM; for morphology, growth and survival of T98G cells: 5 days, 10 or 20 μM (CP-DN-CEBPB), 3, 10, 20 or 50 μM (CP-DN-CEBPD); for effect of BSA in stock buffer on potency in suppressing growth and survival: 6 days, BSA 3 mg/ml in stock, 0.6 mg/ml in medium
Description: Replicate T98G glioblastoma cell cultures were exposed to dominant negative (DN) synthetic peptides having an N-terminal penetratin sequence followed by a CEBPB or CEBPD native leucine zipper sequence (CP-DN-CEBPB or CP-DN-CEBPD, respectively) for 5 days at final concentrations of 10 μM or 20 μM (CP-DN-CEBPB) or 3 μM, 10 μM, 20 μM or 50 μM (CP-DN-CEBPD). Stock solutions of the peptides were prepared in buffer without added bovine serum albumin (BSA).
Replicate T98G glioblastoma cell cultures were exposed to CP-DN-CEBPB or CP-DN-CEBPD, for 6-7 days at doses of 0 μM to 50 μM. […] Stock solutions of the peptides were prepared in buffer without added bovine serum albumin (BSA).
Replicate T98G cell cultures were exposed to CP-DN-CEBPB or CP-DN-CEBPD peptides (10 μM or 20 μM) for 1, 2, 3, 4, 5, or 6 days. […] Values shown in FIG. 7A and FIG. 7B represent means from 3 replicate cultures. Stock solutions of the peptides were prepared in buffer without added bovine serum albumin (BSA).
Four replicate cultures of T98G cells were treated for 6 days with a cell penetrating dominant negative CEBPB (CP-DN-CEBPB; FIG. 8A) or a cell penetrating dominant negative CEBPD (CP-DN-CEBPD; FIG. 8B) at doses of 0 μM to 50 μM, with or without bovine serum albumin (BSA). […] Concentration of BSA in the stock solution, when present, was 3 mg/ml. The final concentration of BSA in the cell culture medium was 0.6 mg/ml. Values represent means of determinations made on 4 replicate cultures for each condition.
(§1) Replicate cultures of HCT116, MDA-MB 231, MCF7, and T98G cells were exposed to a 50/50 by concentration mixture of CP-DN-CEBPB and CP-DN-CEBPD for 6 days at doses of 0 μM to 50 μM. Stock solutions of the peptides were prepared in buffer without added bovine serum albumin (BSA).
(§2) Replicate cultures of T98G, HCT116, MDA-MB 231, and MCF7 cells were exposed to CP-DN-CEBPB, CP-DN-CEBPD, or a CP-DN-CEBPD in which heptad repeat leucine residues were mutated to glycine residues for 6 days at doses of 0 μM to 50 μM. Stock solutions of the peptides were prepared in buffer without added bovine serum albumin (BSA).

[2] = tested on: MDA-MB-231 breast cancer cells; experiment: Cell number after peptide treatment, MDA-MB-231; type: cell-based; settings: 6 days, 0 μM to 50 μM; stock without BSA
Description: (§3) Replicate cultures were exposed to the peptides the for 6 days at the indicated concentrations. Stock solutions of the peptides were prepared in buffer without added bovine serum albumin (BSA).
as §1, §2

[3] = tested on: LN229 glioblastoma cells; experiment: Cell number after peptide treatment, LN229; type: cell-based, human; settings: for growth and survival of LN229 cells: 6 days, 0 μM to 50 μM, stock without BSA
Description: In some implementations, the mixture of arg/glu may be added at a molarity of, or of about 5 mM, 10 mM, 15 mM, 20 mM, 25 mM, or 30 mM.
as §3

[4] = tested on: HIEC-6 non-cancer human intestinal epithelial cells; experiment: Cell number after peptide treatment, HIEC-6; type: cell-based; settings: 6 days, 0 μM to 50 μM; stock without BSA
Description: Replicate cultures of HIEC-6 non-cancer human intestinal epithelial cells, MCF10A non-cancer human breast epithelial cells, or normal human astrocytes were exposed to CP-DN-CEBPB or CP-DN-CEBPD, for 6 days at doses of 0 μM to 50 μM. […] Stock solutions of the peptides were prepared in buffer without added bovine serum albumin (BSA).

[5] = tested on: MDA-MB-231 cells; experiment: Apoptotic nuclei, propidium iodide flow cytometry, MDA-MB-231; type: cell-based; settings: 20 μM, 3 days, vs untreated cells
Description: MDA-MB-231, MCF7, HCT116 and T98G cancer cell lines were treated for 3 days with 20 μM CP-dn-CEBPB and CP-dn-CEBPD peptides from stock solutions prepared without additives. Cultures were stained with propidium iodide and assessed for proportion of cells with apoptotic nuclei by flow cytometry.

[6] = tested on: T98G, MDA-MB 231, and MCF7 cells; experiment: Combination with paclitaxel, overall conclusion; type: cell-based; settings: co-treatment, cell number or colony number
Description: Replicate cultures of T98G, MDA-MB 231, and MCF7 cells were treated with 1 nM or 5 nM paclitaxel and 3 μM, 10 μM, or 20 μM CP-dn-CEBPB and CP-dn-CEBPD peptides, maintained for 6 days, and then assessed for cell number. The bar graphs of FIGS. 26A (T98G, CP-dn-CEBPB), 26C (T98G, CP-dn-CEBPBD, 26E (MDA-MB-231, CP-dn-CEBPBD), 26G (MDA-MB-231, CP-dn-CEBPD), 26I (MCF7, CP-dn-CEBPBB), and 26K (MCF7, CP-dn-CEBPBD) show relative cell numbers for each condition as compared to untreated controls. The line graphs of FIGS. 26B (T98G, CP-dn-CEBPB), 26D (T98G, CP-dn-CEBPBD), 26F (MDA-MB-231, CP-dn-CEBPB), 26H (MDA-MB-231, CP-dn-CEBPD), 26J (MCF7, CP-dn-CEBPB), and 26L (MCF7 CP-dn-CEBPBD) show the response as normalized in each case so that 100 represents the relative number of surviving cells that received the indicated level of paclitaxel, but no peptide treatment. Calculated combination indices (CI) were as follows: MCF7: CI=0.41±0.04 for CP-dn-CEBPB; 0.44±0.04 for CP-dn-CEBPD; MDA-MB-231: 0.74±0.03 for CP-dn-CEBPB; 0.74±0.05 for CP-dn-CEBPD; T98G: CI=0.84±0.06 for CP-dn-CEBPB and 0.75±0.07 for CP-dn-CEBPD.
Replicate cultures of MDA-MB-231 cells in soft agar were treated with 0.1 nM or 0.5 nM 50 nM or 500 nM CP-dn-CEBPB and CP-dn-CEBPD peptides, maintained for 12 days, and then assessed for colony number. […]

RQIKIWFQNRRMKWKKLETQHKVLELTAENERLQKKVEQLSRELSTLRNLFKQL [CP-DN-CEBPB]
growth and survival of T98G cells, time course [1]: decreased as compared to untreated control cells
number of T98G cells [1]: dose-responsively decreased
morphology, growth and survival of T98G cells [1]: dose-responsively affected the morphology, growth and survival
effect of BSA in stock buffer on potency in suppressing growth and survival [1]: greatly increased the potency
growth and survival / numbers of MDA-MB-231 cells [2]: decrease in growth and survival
growth and survival of LN229 cells [3]: decrease in growth and survival
effect of adding arg/glu mixture at 2 mM ([3]; cultured LN229 cells): only minimal effect
number of HIEC-6 cells [4]: did not cause a dose-dependent decrease
proportion of cells with apoptotic nuclei [5]: increased apoptotic cell death
kind of combined effect with paclitaxel [6]: synergistic effect

RQIKIWFQNRRMKWKKLVELSAENEKLHQRVEQLTRDLAGLRQFFK [CP-DN-CEBPD]
growth and survival of T98G cells, time course [1]: decreased as compared to untreated control cells
number of T98G cells [1]: dose-responsively decreased
morphology, growth and survival of T98G cells [1]: dose-responsively affected the morphology, growth and survival
effect of BSA in stock buffer on potency in suppressing growth and survival [1]: greatly increased the potency
growth and survival / numbers of MDA-MB-231 cells [2]: decrease in growth and survival
growth and survival of LN229 cells [3]: decrease in growth and survival
effect of adding arg/glu mixture at 2 mM ([3]; cultured LN229 cells): only minimal effect
shift of IC50 by 20 mM arginine and glutamate ([3]; cultured LN229 cells): 10 fold
number of HIEC-6 cells [4]: did not cause a dose-dependent decrease
proportion of cells with apoptotic nuclei [5]: increased apoptotic cell death
kind of combined effect with paclitaxel [6]: synergistic effect

From patent US12428455B2, “Dominant negative CEBPB and CEBPD proteins and methods of use for decreasing viability of neoplastic cells” (The Trustees of Columbia University in the City of New York, priority 2018, dated 2025)
